Common to all, as to experiment: growth of human tumour cells (NCI), 48 h
Experiment [1] has as its system A549 NSCLC.
Experiment [2] has as its system CAKI-1 renal.
Experiment [3] has as its system HL-60(TB) leukemia.
The test system of experiment [4] is M14 melanoma.
The test system of experiment [5] is NCI-H226 lung.
Experiment [6] relates to PC-3 prostate.
The subject of experiment [7] is RXF 393 renal.
The test system of experiment [8] is SK-MEL-2 melanoma.
Experiment [9] deals with SNB-19 CNS.
The test system of experiment [10] is HCC-2998 colon.

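96-well plates; 48 h exposure; 5 concentrations. Endpoints by linear interpolation between flanking doses. Not reached: highest tested concentration assigned. At the GI50, growth is halved. Definition used: TGI = concentration required for complete inhibition of growth.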

Turning to `Cc1cccnc1CNC1CC(NCc2ncccc2C)CC(NCc2ncccc2C)C1` (stereo unspecified), the GI50 in experiment [1] is 2.01 µM; in experiment [2] it was 4.84 µM; in [3] it was 2.47 µM; in [4], 1.96 µM; in experiment [5] it was 1.65 µM; in [6], 2.3 µM. The GI50 in experiment [7] was 1.92 µM; in experiment [8], 3.9 µM; in experiment [9], 2.04 µM. In addition, the TGI is 4.21 µM in experiment [1]; 21.8 µM in experiment [2]; 5.98 µM in experiment [3]; 4.35 µM in experiment [4]; 3.17 µM in experiment [5]; 4.52 µM in experiment [6]. Moreover, the results for the TGI in experiment [7], in experiment [8] and in experiment [9] were 3.9 µM, more than 100 µM and 4.03 µM, respectively.
With `O=C(Nc1ccc(S(=O)(=O)NC2CCCCCC2)cc1)C(c1ccccc1)S(=O)(=O)c1ccc(F)cc1` (stereo unspecified), the GI50 in experiment [1] is 0.854 µM; in experiment [10], 0.868 µM; in experiment [3] it was 0.357 µM; in [4], 0.514 µM; in experiment [5], 0.39 µM; in [6], 0.295 µM. In addition, the GI50 in experiment [7] is 0.217 µM; in experiment [8] it was 0.449 µM; in experiment [9], 0.622 µM. Moreover, the TGI in experiment [1] amounted to 2.9 µM; in [10] it was 2.35 µM; in experiment [3], 2.51 µM; in experiment [4], 2.55 µM; in experiment [5], 3.43 µM; in experiment [6], 2.19 µM. Further, the TGI in [7] was 0.562 µM; in [8] it was 2.08 µM; in experiment [9] it was 37.2 µM.
Consider `CC(=O)/C=C/C1=C(c2ccsc2)c2ccccc2CC1`, for which the GI50 was 17.4 µM in experiment [1]; 27.7 µM in [2]; 18.2 µM in experiment [10]; 17.8 µM in experiment [4]; 18.8 µM in experiment [5]; 23.9 µM in experiment [6]. Further, the GI50 in experiment [8] is 21.2 µM; in [9], 42.5 µM. Moreover, the TGI in experiment [1] turned out to be 37.5 µM; in experiment [2], 83.4 µM; in [10], 36.2 µM; in experiment [4], 37.1 µM; in [5], 44.4 µM; in experiment [6], 65.3 µM. Besides, the TGI is 38 µM in experiment [8] and more than 100 µM in experiment [9].
In the case of `CCN(CC)c1ccc2nc3c4ccccc4c(=NC(=O)c4ccccc4-c4c5ccc(N(CC)CC)cc5[o+]c5cc(N(CC)CC)ccc45)cc-3oc2c1`, the GI50 in experiment [1] is 1.83 µM; in experiment [2], 4.95 µM; in experiment [10], 1.62 µM; in experiment [3], 2.96 µM; in experiment [4], 2.47 µM; in experiment [5] it was 15.4 µM. In addition, the GI50 in experiment [6] was 1.97 µM; in experiment [8], 3.4 µM; in experiment [9] it was 2.3 µM. Besides, the TGI in experiment [1] is 5.08 µM; in experiment [2], 18.9 µM; in experiment [10], 3.82 µM; in [3], more than 100 µM; in experiment [5], 38.8 µM; in experiment [6], more than 20.6 µM. Also, the TGI in [8] stood at 9.15 µM; in [9], 6.64 µM.
For `NC(=O)NC(=O)C1CCCCC1C(=O)O` (stereo unspecified), the TGI in experiment [1], in [2], in experiment [3], in experiment [4], in experiment [5] and in experiment [6] was more than 100 µM each time. Also, the TGI in experiment [7], in [8] and in experiment [9] was more than 100 µM throughout.
`COc1cccc(Nc2nccc(Nc3ccc4[nH]ncc4c3)n2)c1`: the GI50 in [1] was 1.71 µM; in [2], 0.993 µM; in experiment [10] it was 1.79 µM; in experiment [3], 1.53 µM; in [4] it was 1.35 µM; in experiment [5], 1.82 µM. Also, the GI50 is 1.34 µM in experiment [6], 1.06 µM in experiment [7] and 1.62 µM in experiment [8]. In addition, the TGI in experiment [1] amounted to 3.74 µM; in experiment [2], 2.51 µM; in experiment [10] it was 3.36 µM; in experiment [3] it was 3.56 µM; in [4] it was 2.81 µM; in experiment [5], 4.46 µM. Also, the TGI in experiment [6] is 3.12 µM; in [7], 2.33 µM; in [8] it was 3.27 µM.
Consider `N#CC(C#N)=Cc1ccc(-c2ccc(-c3nc4ccccc4o3)cc2)o1`, for which the GI50 in [1] was 28.2 µM; in [2], 40 µM; in experiment [10], 47.1 µM; in [4], 77.4 µM; in experiment [5], 21 µM; in experiment [6], 29.5 µM. Also, the GI50 in experiment [7] was 96.2 µM; in [8], more than 100 µM; in experiment [9] it was more than 100 µM. For the same molecule, the TGI was more than 100 µM in [1]; more than 100 µM in experiment [2]; 96.4 µM in experiment [10]; more than 100 µM in experiment [4]; 99.7 µM in experiment [5]; more than 100 µM in experiment [6]. Moreover, the TGI in [7], in experiment [8] and in [9] was more than 100 µM each time.
For `COC(=O)C(=O)C1CCCCC(C2=NC3NN=C(N)N3C2=O)C1=O` (stereo unspecified), the TGI in experiment [1], in experiment [2], in experiment [10], in experiment [3], in experiment [4] and in [5] was more than 100 µM throughout. The TGI in experiment [7], in experiment [8] and in [9] was more than 100 µM in each case.
On to `Cc1sc(/N=C2/NC(=O)CS2)nc1-c1nc(/N=C2/NC(=O)CS2)sc1C`, for which the GI50 is more than 50 µM in experiment [1]; more than 50 µM in experiment [2]; more than 50 µM in experiment [3]; more than 50 µM in experiment [5]; 16.8 µM in [6]; more than 50 µM in experiment [7]. Moreover, the GI50 in experiment [8] and in experiment [9] was more than 50 µM throughout. In addition, the TGI in experiment [1], in experiment [2], in [3], in experiment [5], in experiment [6] and in [7] was more than 50 µM throughout. In addition, the TGI in [8] and in experiment [9] was more than 50 µM in each case.
Turning to `CP(C)C.[Ag][I]`, the TGI in experiment [1], in experiment [2], in [10], in [3], in experiment [4] and in experiment [5] was more than 100 µM throughout. In addition, the TGI in experiment [7], in experiment [8] and in experiment [9] was more than 100 µM each time.
For the molecule `CON`, the GI50 in [1], in [2], in [10], in experiment [3], in experiment [4] and in [5] was more than 100 µM each time. In addition, the GI50 in [7], in experiment [8] and in [9] was more than 100 µM each time. The TGI in [1], in experiment [2], in [10], in [3], in experiment [4] and in experiment [5] was more than 100 µM in each case. Moreover, the TGI in experiment [7], in [8] and in experiment [9] was more than 100 µM each time.
For the molecule `CC1(C)CC2CC(C)(CN2c2ncnc3ccc(Br)cc23)C1` (stereo unspecified), the GI50 in [1] is 2.82 µM; in [2], 10.2 µM; in experiment [10], 11.7 µM; in [3] it was 1.38 µM; in [4], 11 µM; in experiment [5], 3.32 µM. Also, the GI50 was 11 µM in experiment [7], 28.8 µM in [8] and 14.4 µM in experiment [9]. Further, the TGI in experiment [1] worked out at 9.11 µM; in [2], 22 µM; in experiment [10], 23.9 µM; in experiment [3], 3.48 µM; in experiment [4], 22.9 µM; in experiment [5], 16.2 µM. Also, the TGI was 23.6 µM in experiment [7], more than 100 µM in experiment [8] and 30.5 µM in experiment [9].
`O=C1c2ccccc2C(=O)c2c(NC(=O)c3ccc4c5c(ncnc35)-c3ccccc3C4=O)cccc21`: the TGI in experiment [1], in experiment [2], in experiment [10], in experiment [4], in [5] and in experiment [6] was more than 100 µM throughout. In addition, the TGI was 49.1 µM in experiment [7], more than 100 µM in [8] and more than 100 µM in experiment [9].
Turning to `Cc1cccc(N=C2NC(=O)C(CC(=O)Nc3ccc(Cl)cc3C)S2)c1` (stereo unspecified), the TGI in [1], in [2], in experiment [10], in experiment [3], in experiment [4] and in experiment [5] was more than 100 µM each time. In addition, the TGI in experiment [7], in [8] and in [9] was more than 100 µM in each case.
Regarding `Cc1cc(=O)[nH]c(CNC(=O)Cc2ccccc2)n1`, the TGI in experiment [1], in [2], in [10], in [3], in [4] and in experiment [5] was more than 100 µM in each case. Moreover, the TGI in experiment [7], in [8] and in experiment [9] was more than 100 µM each time.
